Experimental data taken from US12152038B2, “Vasopressin receptor antagonists and products and methods related thereto” (Neumora Therapeutics, Inc., priority 2017, dated 2024).
Where two headings read alike, the source gives them in different places.

Experiments:
MDR1 (P-glycoprotein) = target: T1, MDR1 (P-glycoprotein) (Homo sapiens, UniProt P08183); assay: MDR1-MDCK permeability and efflux assay (Papp, efflux ratio, effective efflux ratio); assay type: in vitro ADME; conditions: for EER (Effective Efflux Ratio): ER(MDR1-MDCK)/ER(wild-type MDCK); for ER MDR1 (Efflux Ratio): Papp B>A/Papp A>B
T1 construct: host or cells: MDCK (MDR1-MDCK; wild-type MDCK as comparator)
In short: (§1)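 Confluent WT or MDR1-MDCK monolayers (3-day culture) dosed with 10 μM compound, 0.1% DMSO, in HBSS/25 mM HEPES pH 7.4, A>B and B>A, 1 h at 37 °C; LC-MS/MS quantitation. Papp from acceptor/donor ratio; efflux ratio = Papp B>A/A>B; EER = ER(MDR1)/ER(WT).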

[1] = test system: wild-type (WT) MDCK cells; assay: Wild-type MDCK permeability and efflux assay (Papp, efflux ratio); assay type: in vitro ADME; conditions: for Papp AB WT: A->B; for ER WT (Efflux Ratio): Papp B>A/Papp A>B
In short: as §1

V1a receptors = target: T2, V1a receptors (Rattus norvegicus, UniProt P30560); assay: AVP induced phospho-ERK measurement in rat choroid plexus (RCP) cells; assay type: cell-based; conditions: RCP cells stimulated with AVP, pERK1/2 to total ERK1/2 ratio
T2 construct: Rat choroid plexus (RCP) cell lines express functional V1a receptors; endogenous in cells; host or cells: rat choroid plexus (RCP) cell line, RCP P9(18)
Protocol: Rat choroid plexus (RCP) cell lines express functional V1a receptors measured by increased calcium concentrations in response to V1a receptor agonists (Battle et al., Biochem. Biophys. Res. Comm. 2000).
RCP P9(18) cells were seeded 30K/well, in 100 μl growth medium containing 10% FBS in polystyrene 96-well plates and incubated at 37° C., 5% CO2 and incubated overnight. The following day, the growth medium was replaced with 50 μl pre-warmed HBSS containing 20 mM HEPES and the cells were incubated at 37° C., 5% CO2 for 1.5 hrs. 1 mM AVP (Sigma V9879) was freshly prepared in distilled water in a glass vial and diluted to 3× concentrations in HBSS containing 20 mM HEPES and 0.1% BSA in glass vials and kept on ice. […] Final concentrations of AVP: 10, 100 or 1000 nM. […] Cells were lysed with 25 μl 4×CST lysis buffer containing protease and phosphatase inhibitors, PMSF and SDS and then stored at −80° C., for 48 h. The lysates were thawed, centrifuged at 2000 g for 30 min at 4° C. and 40 μl supernatants assayed for pERK1/2 (Thr202/Tyr204; Thr185/Tyr187) and total ERK1/2 using MSD kit K15107D. The MSD ECL data for the lysates were corrected for no cell blanks, then phospho-protein levels expressed as a ratio to the total ERK1/2 level. The ratios were expressed as fold-change from the vehicle-treated control at each timepoint.

T1 sequence (P08183 whole entry): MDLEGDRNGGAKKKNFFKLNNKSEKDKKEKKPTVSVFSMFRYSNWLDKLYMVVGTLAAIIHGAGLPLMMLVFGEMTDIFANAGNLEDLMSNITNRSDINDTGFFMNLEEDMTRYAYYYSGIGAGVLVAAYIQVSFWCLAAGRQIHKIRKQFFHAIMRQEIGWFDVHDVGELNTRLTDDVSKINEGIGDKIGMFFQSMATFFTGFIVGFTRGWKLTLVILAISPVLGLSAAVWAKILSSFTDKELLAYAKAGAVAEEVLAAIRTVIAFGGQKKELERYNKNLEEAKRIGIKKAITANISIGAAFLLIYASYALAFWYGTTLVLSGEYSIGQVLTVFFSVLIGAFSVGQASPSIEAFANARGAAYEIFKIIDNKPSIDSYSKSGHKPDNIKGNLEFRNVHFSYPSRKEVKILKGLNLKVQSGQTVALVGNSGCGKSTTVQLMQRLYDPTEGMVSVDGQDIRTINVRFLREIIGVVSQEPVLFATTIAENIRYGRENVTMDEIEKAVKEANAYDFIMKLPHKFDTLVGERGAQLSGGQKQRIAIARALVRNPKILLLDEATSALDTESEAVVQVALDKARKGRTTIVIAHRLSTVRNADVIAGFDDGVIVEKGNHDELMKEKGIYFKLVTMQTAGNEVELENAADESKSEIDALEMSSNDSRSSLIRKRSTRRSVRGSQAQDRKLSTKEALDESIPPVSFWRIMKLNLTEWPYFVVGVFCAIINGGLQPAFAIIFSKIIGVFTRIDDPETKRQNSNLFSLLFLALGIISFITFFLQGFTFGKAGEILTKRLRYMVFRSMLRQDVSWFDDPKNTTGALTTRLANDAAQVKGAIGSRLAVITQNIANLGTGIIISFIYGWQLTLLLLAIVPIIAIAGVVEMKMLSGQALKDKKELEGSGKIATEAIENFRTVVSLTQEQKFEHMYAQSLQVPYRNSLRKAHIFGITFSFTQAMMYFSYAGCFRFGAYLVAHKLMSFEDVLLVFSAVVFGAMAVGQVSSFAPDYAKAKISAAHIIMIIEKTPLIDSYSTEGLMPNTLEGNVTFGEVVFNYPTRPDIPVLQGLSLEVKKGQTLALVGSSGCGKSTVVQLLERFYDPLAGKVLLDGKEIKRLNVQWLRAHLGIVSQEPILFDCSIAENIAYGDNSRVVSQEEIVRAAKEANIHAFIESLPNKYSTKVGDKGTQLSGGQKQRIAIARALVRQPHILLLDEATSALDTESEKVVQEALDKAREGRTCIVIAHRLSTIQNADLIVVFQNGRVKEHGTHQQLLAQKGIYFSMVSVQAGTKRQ
T2 sequence (P30560 whole entry): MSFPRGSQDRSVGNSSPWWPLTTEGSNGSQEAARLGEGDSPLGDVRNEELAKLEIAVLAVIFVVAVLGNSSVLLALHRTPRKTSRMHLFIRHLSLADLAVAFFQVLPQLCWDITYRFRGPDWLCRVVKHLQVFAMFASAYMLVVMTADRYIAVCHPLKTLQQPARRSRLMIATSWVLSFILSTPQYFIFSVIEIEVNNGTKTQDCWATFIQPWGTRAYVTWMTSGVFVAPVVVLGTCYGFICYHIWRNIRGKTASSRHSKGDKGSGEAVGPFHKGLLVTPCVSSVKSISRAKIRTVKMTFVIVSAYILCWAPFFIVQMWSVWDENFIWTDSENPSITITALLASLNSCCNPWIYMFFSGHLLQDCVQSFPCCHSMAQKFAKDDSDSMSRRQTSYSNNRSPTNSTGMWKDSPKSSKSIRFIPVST

Structure (SMILES)	Papp AB MDR1 (MDR1 (P-glycoprotein); A->B, MDR1-MDCK cells)	EER (Effective Efflux Ratio) (MDR1 (P-glycoprotein))	ER MDR1 (Efflux Ratio) (MDR1 (P-glycoprotein); MDR1-MDCK cells)	Papp AB WT [1]	ER WT (Efflux Ratio) [1]	efflux ratio at 1 h, 10 μM (MDR1 (P-glycoprotein); dog, MDCK-MDR1, pH 7.4, ER(MDR1-MDCK)/ER(wild-type MDCK), read-out: EER (Effective Efflux Ratio))	efflux ratio at 1 h, 10 μM (MDR1 (P-glycoprotein); dog, MDCK-MDR1, pH 7.4, Papp B>A/Papp A>B, MDR1-MDCK cells, read-out: ER MDR1 (Efflux Ratio))	Papp A→B at 1 h, 10 μM (MDR1 (P-glycoprotein); dog, pH 7.4, A->B, MDR1-MDCK cells, read-out: Papp AB MDR1) [×10⁻⁶ cm/s]	IC50 (V1a receptors; first study) [nM]	IC50 (V1a receptors; second study) [nM]
CC1COc2cc(Cl)ccc2N1C(=O)N1CC2(C1)CN(c1cc(C#N)ccn1)C2 (single isomer, unassigned) [20-6-B]	++++ (>20 (10^−6 cm/sec) is highly permeable (++++))	++++ (efflux ratio or effective efflux ratio of <1 has low probability of being an efflux substrate (++++))	++++ (efflux ratio or effective efflux ratio of <1 has low probability of being an efflux substrate (++++))	++++ (>20 (10^−6 cm/sec) is highly permeable (++++))	++++ (efflux ratio or effective efflux ratio of <1 has low probability of being an efflux substrate (++++))	–	–	–	–	–
Cc1nc(N2CC3(CN(C(=O)N4c5ccc(Cl)cc5OCC4C)C3)C2)ncc1F (single isomer, unassigned) [20-7-B]	++++ (>20 (10^−6 cm/sec) is highly permeable (++++))	+++ (>1 but <2 has moderate probability of being an efflux substrate (+++))	++++ (efflux ratio or effective efflux ratio of <1 has low probability of being an efflux substrate (++++))	++++ (>20 (10^−6 cm/sec) is highly permeable (++++))	++++ (efflux ratio or effective efflux ratio of <1 has low probability of being an efflux substrate (++++))	–	–	–	–	–
CC1COc2cc(F)ccc2N1C(=O)N1CC2(C1)CN(c1ccc(F)cn1)C2 (single isomer, unassigned) [12-1-B]	++++ (>20 (10^−6 cm/sec) is highly permeable (++++))	+++ (>1 but <2 has moderate probability of being an efflux substrate (+++))	++++ (efflux ratio or effective efflux ratio of <1 has low probability of being an efflux substrate (++++))	++++ (>20 (10^−6 cm/sec) is highly permeable (++++))	++++ (efflux ratio or effective efflux ratio of <1 has low probability of being an efflux substrate (++++))	–	–	–	–	–
Cc1cncc(N2CC3(CN(C(=O)N4c5ccc(F)cc5OCC4C)C3)C2)n1 (single isomer, unassigned) [20-2-B]	++++ (>20 (10^−6 cm/sec) is highly permeable (++++))	+++ (>1 but <2 has moderate probability of being an efflux substrate (+++))	+++ (>1 but <2 has moderate probability of being an efflux substrate (+++))	++++ (>20 (10^−6 cm/sec) is highly permeable (++++))	++++ (efflux ratio or effective efflux ratio of <1 has low probability of being an efflux substrate (++++))	–	–	–	–	–
CC1COc2cc(Cl)ccc2N1C(=O)N1CC2(C1)CN(c1ncccn1)C2 (single isomer, unassigned) [1-83-B, (7-chloro-3-methyl-2,3-dihydro-4H-benzo[b][1,4]oxazin-4-yl)(6-(pyrimidin-2-yl)-2,6-diazaspiro[3.3]heptan-2-yl)methanone]	–	–	–	–	–	1 to 2	1 to 2	> 20	16	20
